Data set [1] deals with Arabidopsis seedlings. In words: Seedling growth assay on trehalose with or without Val A. It is filed as in vivo, Arabidopsis thaliana. The following applies: for sensitivity to trehalose, root length: with Val A. The protocol:
FIG. 3: Growth phenotypes of AtTRE1 mutants on trehalose. Panel A, GT tre KO lines and wt Ler with Val A. Panel B, SA TRE OX lines and wt Col with Val A. Panel C, GT tre KO lines and wt Ler without Val A. Panel D, SA TRE OX lines and wt Col without Val A. Approximately 30 seedlings/treatment were grown on vertical plates, 1× MS without suc, in a 12 hours-12 hours day/night cycle, for 10 days with 0, 0.5, 1, 5, 10, or 25 mM trehalose. Data are means±SE.
FIG. 4: Growth phenotypes of AtTRE1 mutants on high trehalose. Seedlings grown in the same conditions as described in FIG. 3, without Val A, and with higher concentration of trehalose: 50, 100, 150, and 200 mM. Representative seedlings are shown.
Vapor-sterilized seeds were sown after a 48-hour stratification period in vertically or horizontally oriented Petri dishes on a full strength (or mentioned otherwise) Murashige and Skoog Salt Mixture including vitamins (MS) medium (4.3 g/l) with MES (0.5 g/l) and solidified with Phytagar (8 g/l) (Duchefa, Haarlem, The Netherlands). The media was enriched with sucrose/glucose (0-6%) or trehalose, depending on the tested conditions, which are specified. Val A was added in a concentration of 10 μM.
In our growth assay, no extra sugar was added to the media.

The target in a further data set is T1, trehalase (Arabidopsis thaliana, UniProt Q9SU50).
T1 sequence (Q9SU50 1-626): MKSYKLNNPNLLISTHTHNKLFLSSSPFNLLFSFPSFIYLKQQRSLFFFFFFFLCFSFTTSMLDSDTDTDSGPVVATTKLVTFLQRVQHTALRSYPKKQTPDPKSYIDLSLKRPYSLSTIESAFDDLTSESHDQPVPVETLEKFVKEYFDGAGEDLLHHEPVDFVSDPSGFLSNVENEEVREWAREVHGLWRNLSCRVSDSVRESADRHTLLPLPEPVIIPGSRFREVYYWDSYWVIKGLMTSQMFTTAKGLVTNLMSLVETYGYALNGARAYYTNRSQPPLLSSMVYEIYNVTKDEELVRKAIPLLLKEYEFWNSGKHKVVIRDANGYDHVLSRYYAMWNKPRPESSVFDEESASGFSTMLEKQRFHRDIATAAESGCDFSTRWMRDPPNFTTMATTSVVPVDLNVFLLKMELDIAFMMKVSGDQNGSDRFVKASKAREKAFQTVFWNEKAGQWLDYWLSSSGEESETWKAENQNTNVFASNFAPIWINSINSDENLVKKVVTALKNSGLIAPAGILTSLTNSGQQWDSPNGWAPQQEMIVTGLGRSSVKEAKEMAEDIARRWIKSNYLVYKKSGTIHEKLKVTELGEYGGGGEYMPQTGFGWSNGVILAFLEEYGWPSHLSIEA
Particulars: cited from earlier work.

In a further data set the test system is plants. Particulars: Val A treatment, cited from earlier work.
For data set [2], the system named is Arabidopsis seedlings. Particulars: absence of Val A; cited from earlier work.

The values below come from patent US20120005774A1, “USE OF TREHALASE TO OBTAIN DROUGHT RESISTANCE IN PLANTS” (KATHOLIEKE UNIVERSITEIT LEUVEN, K.U. LEUVEN R & D, priority 2009, published 2012).

For the compound `OCC1=C[C@@H](N[C@H]2C[C@H](CO)[C@@H](O[C@H]3O[C@@H](CO)[C@H](O)[C@@H](O)[C@@H]3O)[C@H](O)[C@H]2O)[C@H](O)[C@@H](O)[C@@H]1O` [Validamycin A], the “inhibition of trehalase activity in the OX lines” value in the data set with Arabidopsis seedlings [1] (Val A 10 μM, SA TRE OX lines, concluded from growth on trehalose) was “not sufficient to inhibit increased trehalase activity”. The trehalase activity entry on trehalase was “specifically inhibits trehalase activity”. In addition, in the data set on plants (adult plants), the phytotoxicity result was “causes phytotoxicity”. For the same compound, in the data set on plants (seedlings), the “phenotypic irregularities in seedlings” value is “no phenotypic irregularities”.

On to `OC[C@H]1O[C@H](O[C@H]2O[C@H](CO)[C@@H](O)[C@H](O)[C@H]2O)[C@H](O)[C@@H](O)[C@@H]1O` [trehalose, α-D-glucopyranosyl-1,1-α-D-glucopyranoside], for which the “sensitivity to trehalose, root length” value in the data set on Arabidopsis seedlings [1] (Col wild-type plants, 10 mM trehalose) was “more dramatic decrease in root length”; in the data set with Arabidopsis seedlings [1] (Ler wild-type plants), “rather gradual inhibitory effect”. Besides, in the data set with Arabidopsis seedlings [1] (GT tre KO mutants versus wild-type Ler, without Val A), the “development with increasing trehalose concentrations” value is “significantly more affected in development”. Also, in the data set on Arabidopsis seedlings [1] (SA TRE OX plants versus wild-type controls, in the presence of Val A), the “resistance to higher trehalose levels” value is given as “significantly more resistant”. Further, the “sensitivity to high trehalose concentrations” value with Arabidopsis seedlings [1] (SA TRE OX plants versus wild-type seedlings, without Val A, up to 200 mM) is on record as “insensitive”. The “root growth and development of wild-type seedlings” value with Arabidopsis seedlings [1] (gradually increased trehalose (0-25 mM) in the presence of Val A 10 μM, no extra sugar, 10 days) was “increased inhibition of root growth and development”. In addition, the “development of wild-type seedlings on high trehalose concentrations” value in the data set on Arabidopsis seedlings [2] was “arrest with development shortly after germination”.
